# Patent US6384074B1, “Cell growth activating composition containing compound having labdane structure” (Takasago International Corporation, priority 1998, dated 2002)
# What was measured:
# [1] = system: B16 melanoma cells; assay: Melanin formation prevention test (melanin production and cell proliferation); type: cell-based; details: for Degree of cell proliferation: relative to ethanol control
# Experimental: B16 melanoma cells were suspended (10,000 cells/ml) in DMEM (Dulbecco's modified eagle medium) containing 10% FBS (fetal bovine serum) and 8 ml of the suspension was added to a cell culture bottle with a 25 cm^2 bottom surface area, and cultured at 37° C. in the presence of 5% carbon dioxide for 3 days. After 3 days of culture, the old medium was exchanged with 8 ml of fresh medium. 40 micro-liters of a sample solution, in which compounds of the present invention had been dissolved in ethanol to give a final concentration shown in the table, were further added thereto. As the control, ethanol only was added. After the medium change, the cells were further cultured for 3 days under the same conditions. After culture was finished, the medium was removed, and the cells were recovered by treatment with trypsin (DIFCO) and suspended in 4 ml of phosphate buffered saline (PBS) and a predetermined amount ( 1/40) of this suspension was used to measure the number of cells in a Coultar counter (Sysmex Co.) to determine the degree of cell proliferation.
# The degree of cell proliferation was determined according to the following equations:
# Degree of cell proliferation (%)=(number of cells in sample)/(number of cells in control)×100
# The remainder of the cell suspension was centrifuged and then washed with 5% trichloroacetic acid, then with ethanol/ethyl ether (3:1 by volume), and with ethyl ether and the cells were dried, and 2N—NaOH was added thereto to dissolve (melanin in) the cells under heating at 70° C. and measured for its optical density (OD) at 420 nm. Using a calibration curve of synthetic melanin, the amount of melanin/million cells was determined from the OD and the degree of inhibition of melanin production was determined according to the following equation:
# Degree of inhibition of melanin (%)=(amount of melanin in control−amount of melanin in sample)/(amount of melanin in control)×100
# [2] = system: B16 melanoma cells; assay: Combination test with existing tyrosinase inhibitors (method of Test Example 1); type: cell-based; details: alone
# Experimental: B16 melanoma cells were suspended (10,000 cells/ml) in DMEM (Dulbecco's modified eagle medium) containing 10% FBS (fetal bovine serum) and 8 ml of the suspension was added to a cell culture bottle with a 25 cm^2 bottom surface area, and cultured at 37° C. in the presence of 5% carbon dioxide for 3 days. After 3 days of culture, the old medium was exchanged with 8 ml of fresh medium. 40 micro-liters of a sample solution, in which compounds of the present invention had been dissolved in ethanol to give a final concentration shown in the table, were further added thereto. As the control, ethanol only was added. After the medium change, the cells were further cultured for 3 days under the same conditions. […] Degree of cell proliferation (%)=(number of cells in sample)/(number of cells in control)×100 […] Using a calibration curve of synthetic melanin, the amount of melanin/million cells was determined from the OD and the degree of inhibition of melanin production was determined according to the following equation: Degree of inhibition of melanin (%)=(amount of melanin in control−amount of melanin in sample)/(amount of melanin in control)×100 […]
# [3] = system: mushroom-derived tyrosinase; assay: Mushroom tyrosinase inhibition test; type: biochemical; details: L-tyrosine substrate, 37° C. 30 minutes
# Experimental: After reaction, the absorbance (OD) at a wavelength of 490 nm was measured and the degree of inhibition of tyrosinase reaction was determined according to the following equation. […] Sample: The buffer, the enzyme solution, the substrate solution and the sample solution Sample-free: The buffer, the enzyme solution and the substrate solution Blank: The buffer and the enzyme solution
# [4] = molecular target: T1, tyrosinase in B16 melanoma cells (Mus musculus, UniProt P11344); assay: Test of tyrosinase inhibition in B16 melanoma cells (crude enzyme solution); type: biochemical; details: L-DOPA substrate, 37° C. 3 hours; for Degree of inhibition of tyrosinase in B16 melanoma cells: 25 ppm
# T1 construct: the resulting supernatant was used as a crude enzyme solution; endogenous in cells; host or cells: B16 melanoma cells (Triton X100 lysate, sonicated, 11,000 G supernatant)
# T1 sequence (P11344 19-533): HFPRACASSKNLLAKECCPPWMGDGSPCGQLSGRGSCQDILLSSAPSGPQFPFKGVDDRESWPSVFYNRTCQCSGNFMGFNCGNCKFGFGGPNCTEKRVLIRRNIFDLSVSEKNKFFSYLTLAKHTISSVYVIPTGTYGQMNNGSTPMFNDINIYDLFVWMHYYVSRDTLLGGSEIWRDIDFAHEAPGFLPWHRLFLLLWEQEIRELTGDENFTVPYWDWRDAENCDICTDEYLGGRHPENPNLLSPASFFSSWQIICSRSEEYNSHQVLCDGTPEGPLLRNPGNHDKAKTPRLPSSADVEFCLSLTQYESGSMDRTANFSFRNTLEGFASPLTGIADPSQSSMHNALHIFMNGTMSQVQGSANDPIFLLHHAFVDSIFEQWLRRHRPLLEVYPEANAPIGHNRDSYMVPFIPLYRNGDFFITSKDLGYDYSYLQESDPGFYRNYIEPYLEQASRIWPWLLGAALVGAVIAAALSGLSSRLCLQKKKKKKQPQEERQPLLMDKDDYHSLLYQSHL
# Experimental: B16 melanoma cells were cultured for 3 days in DMEM containing 10% FBS at 37° C. in the presence of 5% carbon dioxide. The cells proliferated after culture were recovered by treatment with trypsin, then suspended in PBS containing 0.1% Triton X100 at a density of ten million cells/ml and disrupted by sonication. The product obtained was centrifuged at 11,000 G for 20 minutes, and the resulting supernatant was used as a crude enzyme solution. Added thereto was 0.2 ml of crude enzyme solution. The mixture was preliminarily kept at 37° C. for 5 minutes, and 0.2 ml L-DOPA solution (0.5 mg/ml) was added as the substrate, and the mixture was kept at 37° C. for 3 hours.
# [5] = system: Bacillus subtilis PCI 219 IFO 3134; assay: Anti-bacterial activity test, agar medium dilution method; type: cell-based; details: Bs-1
# Experimental: (§1) The aerobic microorganisms were examined in an agar medium dilution method and the anaerobic microorganisms were examined in a liquid medium dilution method under anaerobic culture conditions. Muller Hinton agar medium (DIFCO) was heated and dissolved and 10 ml of the medium was introduced into each test tube, sterilized and used. The sample was prepared by dissolving in ethanol and the resulting ethanol solution was diluted 2-fold serially with ethanol, and 100 micro-liters of sample solution were added to 10 ml of each dissolved agar medium, then stirred, introduced into a Petri dish of 9 cm in diameter, and solidified at room temperature. Each test microorganism in a well grown slant was inoculated via one loop of platinum into 10 ml Muller Hinton broth (DIFCO) and cultured with shaking at 27° C. for 24 hours and used as a microbial fluid. This fluid was diluted at 10^8 CFU (Colony forming unit)/ml, and 5 micro-liters of the diluted fluid were inoculated onto the agar and cultured at 37° C. overnight. Inoculation of the microorganism was conducted using microplanter MIT-P for 27 tubes test microorganisms (Sakuma Seisakusho K. K.).
# [6] = system: Corynebacterium minutissimum ATCC 23348; assay: as above; type: cell-based; details: Cm-1
# Experimental: as §1
# [7] = system: Corynebacterium xerosis JCM 1324; assay: as above; type: cell-based; details: Cx-2
# Experimental: as §1
# [8] = system: Malassezia furfur IFO 0656; assay: as above; type: cell-based; details: Mf-1
# Experimental: as §1
# [9] = system: Staphylococcus aureus IFO 12732; assay: as above; type: cell-based; details: Sa-3
# Experimental: as §1
# [10] = system: Staphylococcus epidermidis JCM 2414; assay: as above; type: cell-based; details: Se-1
# Experimental: as §1
# [11] = system: Staphylococcus epidermidis var. H-6; assay: as above; type: cell-based; details: Se-2
# Experimental: as §1
# [12] = system: Human-derived normal skin fibroblasts (NB1RGB); assay: Test of cell activating activity (fibroblast proliferation); type: cell-based; details: relative to ethanol control (100)
# Experimental: Human-derived normal skin fibroblasts (NB1RGB: Institute of Physical and Chemical Research) were suspended into DMEM containing 10% FBS to give a concentration of 20,000 cells/ml, and 5 ml each of this cellular suspension was introduced into each of 25 cm^2 bottles, cultured at 37° C. in the presence of 5% carbon dioxide for 24 hours. To each bottle, was added 10 micro-liter (0.2%) of the ethanol solution containing the compound to give the final concentration shown in Table 8. The cells were cultured for an additional 3 days. After 3 days the old medium was discarded and 5 ml fresh medium was added, and the sample was further added thereto. After this exchange of the medium, the cells were further cultured for another 3 days. Then cells were removed with trypsin and the number of cells in each bottle was counted with a Coultar counter. Simultaneously, as the control, only ethanol was added and the NB1RGB cells were cultured and the number of cells were counted in the same manner. The number of cells in each bottle to which the sample had been added was determined as a relative value to the number (as 100) of cells in the control after cultured, and the results are shown in Table 8.
# [13] = 0.4 ppm, Table 2, combined use with arbutin
# [14] = 0.4 ppm, Table 4, combined use with ellagic acid
compound,measurement,setting,value
"CC1=CCC2C(C)(C)CCCC2(C)C1CCC(C)CC(=O)O (centres unmarked) [Compound 4, labd-7-en-15-oic acid]",Degree of melanin inhibition,"[1]; 6.3 ppm, 3 days",87%
same,Degree of cell proliferation,[1]; 6.3 ppm,109%
same,Degree of cell proliferation,[2]; [13],115%
same,Degree of melanin inhibition,[2]; [13],28%
same,Degree of inhibition of mushroom tyrosinase,[3]; 25 ppm,0%
same,Degree of inhibition of tyrosinase in B16 melanoma cells,[4],0%
same,MIC,[5],12.5 ppm
same,MIC,[6],6.3 ppm
same,MIC,[7],12.5 ppm
same,MIC,[8],6.3 ppm
same,MIC,[9],12.5 ppm
same,MIC,[10],12.5 ppm
same,MIC,[11],12.5 ppm
"C=C1CCC2C(C)(C)CCCC2(C)C1CCC(C)CC(=O)OCC (centres unmarked) [Compound 9, labd-8(17)-en-15-oic acid ethyl ester]",Degree of melanin inhibition,"[1]; 6.3 ppm, 3 days",61%
same,Degree of cell proliferation,[1]; 6.3 ppm,103%
same,Degree of cell proliferation of fibroblasts,[12]; 8.0 ppm,127%
"OC[C@H]1O[C@@H](Oc2ccc(O)cc2)[C@H](O)[C@@H](O)[C@@H]1O [Arbutin, reference compound]",Degree of cell proliferation,[1]; 6.3 ppm,100%
same,inhibition at 6.3 ppm,"[1]; Mus musculus, 72 h, 6.3 ppm, 3 days, read-out: Degree of melanin inhibition",74%
same,Degree of cell proliferation,"[2]; 0.8 ppm, Table 2, combined use with arbutin",89%
same,inhibition at 0.8 ppm,"[2]; Mus musculus, B16, 0.8 ppm, Table 2, combined use with arbutin, read-out: Degree of melanin inhibition",22%
same,Degree of inhibition of mushroom tyrosinase,[3]; 100 ppm,29%
same,inhibition at 100 ppm,"[4]; 100 ppm, read-out: Degree of inhibition of tyrosinase in B16 melanoma cells",35%
"CCOC(=O)CC(C)CCC1=C(C)CCC2C(C)(C)CCCC12C (centres unmarked) [Compound 3, labd-8-en-15-oic acid ethyl ester]",Degree of melanin inhibition,"[1]; 6.3 ppm, 3 days",74%
same,Degree of cell proliferation,[1]; 6.3 ppm,115%
same,Degree of cell proliferation of fibroblasts,[12]; 8.0 ppm,134%
"O=C(O)CO [Glycolic acid, reference compound]",Degree of cell proliferation of fibroblasts,[12]; 4.0 ppm,120%
"CCOC(=O)CC(C)CCC1C(C)=CCC2C(C)(C)CCCC12C (centres unmarked) [Compound 6, labd-7-en-15-oic acid ethyl ester]",Degree of melanin inhibition,"[1]; 6.3 ppm, 3 days",74%
same,Degree of cell proliferation,[1]; 6.3 ppm,109%
same,Degree of cell proliferation of fibroblasts,[12]; 8.0 ppm,134%
"O=c1oc2c(O)c(O)cc3c(=O)oc4c(O)c(O)cc1c4c23 [Ellagic acid, reference compound]",Degree of cell proliferation,[1]; 3.1 ppm,98%
same,inhibition at 3.1 ppm,"[1]; Mus musculus, 72 h, 3.1 ppm, 3 days, read-out: Degree of melanin inhibition",68%
same,Degree of cell proliferation,"[2]; 1.6 ppm, Table 4, combined use with ellagic acid",98%
same,inhibition at 1.6 ppm,"[2]; Mus musculus, B16, 1.6 ppm, Table 4, combined use with ellagic acid, read-out: Degree of melanin inhibition",17%
"C=C1CCC2C(C)(C)CCCC2(C)C1CCC(C)CC(=O)O (centres unmarked) [Compound 7, labd-8(17)-en-15-oic acid]",Degree of melanin inhibition,"[1]; 6.3 ppm, 3 days",79%
same,Degree of cell proliferation,[1]; 6.3 ppm,111%
same,Degree of cell proliferation,[2]; [14],111%
same,Degree of melanin inhibition,[2]; [14],30%
same,Degree of inhibition of mushroom tyrosinase,[3]; 25 ppm,0%
same,Degree of inhibition of tyrosinase in B16 melanoma cells,[4],0%
same,Degree of cell proliferation of fibroblasts,[12]; 8.0 ppm,128%
same,MIC,[5],12.5 ppm
same,MIC,[6],12.5 ppm
same,MIC,[7],12.5 ppm
same,MIC,[8],6.3 ppm
same,MIC,[9],12.5 ppm
same,MIC,[10],6.3 ppm
same,MIC,[11],6.3 ppm
